Experimental data from paper PMC12636295 (bioRxiv, 2025).

Molecular target: T1, SCP2 (human sterol carrier protein 2) (Homo sapiens, UniProt P22307)
T1 sequence (P22307 425-547): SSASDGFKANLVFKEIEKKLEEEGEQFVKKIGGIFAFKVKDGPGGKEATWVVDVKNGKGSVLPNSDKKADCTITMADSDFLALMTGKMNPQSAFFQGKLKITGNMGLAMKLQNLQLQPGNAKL
Test: NBD-SA fluorescence displacement titration
Type: binding

Compound `O=C(O)C(F)(F)C(F)(F)C(F)(F)C(F)(F)C(F)(F)C(F)(F)C(F)(F)C(F)(F)C(F)(F)C(F)(F)C(F)(F)C(F)(F)C(F)(F)C(F)(F)C(F)(F)F` [PFHxDA] has a Ki of 8.4 ± 0.6 µM.
